Columns and labels:
[1] = tested on: Phaeosphaeria nodorum (Septoria nodorum); test: Phaeosphaeria nodorum (Septoria nodorum) / wheat / leaf disc preventative (glume blotch); assay type: in vivo; settings: Parastagonospora nodorum, foliar, wheat cv Kanzler leaf segments, inoculated 2 days after application, assessed 5-7 days after application, read-out: control of Phaeosphaeria nodorum (percent disease control compared to untreated)
[2] = tested on: Botryotinia fuckeliana (Botrytis cinerea); test: Botryotinia fuckeliana (Botrytis cinerea) / liquid culture (gray mould); assay type: cell-based; settings: Vogels broth, 96-well plate, 24° C., 3-4 days after application, read-out: control of Botryotinia fuckeliana (inhibition of growth, photometric)
[3] = tested on: Glomerella lagenarium (Colletotrichum lagenarium); test: Glomerella lagenarium (Colletotrichum lagenarium) / liquid culture (anthracnose); assay type: cell-based; settings: Colletotrichum orbiculare, PDB potato dextrose broth, 96-well plate, 24° C., 3-4 days after application, read-out: control of Glomerella lagenarium (inhibition of growth, photometric)
[4] = tested on: Mycosphaerella arachidis (Cercospora arachidicola); test: Mycosphaerella arachidis (Cercospora arachidicola) / liquid culture (early leaf spot); assay type: cell-based; settings: PDB potato dextrose broth, 96-well plate, 24° C., 4-5 days after application, read-out: control of Mycosphaerella arachidis (inhibition of growth, photometric)
[5] = tested on: Mycosphaerella graminicola (Septoria tritici); test: Mycosphaerella graminicola (Septoria tritici) / liquid culture (Septoria blotch); assay type: cell-based; settings: Zymoseptoria tritici, PDB potato dextrose broth, 96-well plate, 24° C., 4-5 days after application, read-out: control of Mycosphaerella graminicola (inhibition of growth, photometric)
Gaeumannomyces graminis = Gaeumannomyces graminis / liquid culture (take-all of cereals); assay type: cell-based; settings: liquid culture of mycelial fragments, PDB potato dextrose broth, 96-well plate, 24° C., 4-5 days after application, read-out: control of Gaeumannomyces graminis (inhibition of growth, photometric)
[6] = tested on: Monographella nivalis (Microdochium nivale); test: Monographella nivalis (Microdochium nivale) / liquid culture (foot rot cereals); assay type: cell-based; settings: PDB potato dextrose broth, 96-well plate, 24° C., 4-5 days after application, read-out: control of Monographella nivalis (inhibition of growth, photometric)
Description: Monographella nivalis (Microdochium nivale)/Liquid Culture (Foot Rot Cereals): Conidia of the fungus from cryogenic storage were directly mixed into nutrient broth (PDB potato dextrose broth). After placing a DMSO solution of test compound into a 96-well microtiter plate at an application rate of 200 ppm, the nutrient broth containing the fungal spores was added. The test plates were incubated at 24° C. and the inhibition of growth was determined photometrically 4-5 days after application. […].103

Pyrenophora teres = Pyrenophora teres / barley / leaf disc preventative (net blotch); assay type: in vivo; settings: foliar, barley cv Hasso leaf segments, inoculated two days after application, assessed 5-7 days after application, read-out: control of Pyrenophora teres (disease control compared to untreated)
[7] = tested on: Blumeria graminis f. sp. tritici (Erysiphe graminis f. sp. tritici); test: Blumeria graminis f. sp. tritici (Erysiphe graminis f. sp. tritici) / wheat / leaf disc preventative (powdery mildew on wheat); assay type: in vivo; settings: foliar, wheat cv. Kanzler leaf segments, inoculated 1 day after application, assessed 6-8 days after application, read-out: control of Blumeria graminis (percent disease control compared to untreated)
[8] = tested on: Puccinia recondita f. sp. tritici; test: Puccinia recondita f. sp. tritici / wheat / leaf disc preventative (brown rust); assay type: in vivo; settings: foliar, wheat cv Kanzler leaf segments, inoculated 1 day after application, assessed 7-9 days after application, read-out: control of Puccinia recondita f. sp. tritici (percent disease control compared to untreated)
Description: Puccinia recondita f. sp. tritici/Wheat/Leaf Disc Preventative (Brown Rust) Wheat leaf segments cultivated variety (cv) Kanzler were placed on agar in 24-well plates and sprayed with formulated test compound diluted in water at an application rate of 200 ppm. The leaf disks were inoculated with a spore suspension of the fungus 1 day after application. The inoculated leaf segments were incubated at 19° C. and 75% relative humidity under a light regime of 12/12 h (light/dark) in a climate cabinet and the activity of a compound was assessed as percent disease control compared to untreated when an appropriate level of disease damage appears in untreated check leaf segments (7-9 days after application). […].103

[9] = tested on: Puccinia recondita f. sp. tritici; test: Puccinia recondita f. sp. tritici / wheat / leaf disc curative (brown rust); assay type: in vivo; settings: foliar, wheat cv Kanzler leaf segments, applied 1 day after inoculation, assessed 6-8 days after application, read-out: control of Puccinia recondita f. sp. tritici (percent disease control compared to untreated)
Description: Puccinia recondita f. sp. tritici/Wheat/Leaf Disc Curative (Brown Rust): Wheat leaf segments cv Kanzler were placed on agar in 24-well plates. The leaf segments were inoculated with a spore suspension of the fungus. The plates were stored in darkness at 19° C. and 75% relative humidity. The formulated test compound diluted in water was applied at an application rate of 200 ppm 1 day after inoculation.

CO/N=C(\C)c1cccc(CCCO/N=C2\CCCc3ccc(C)nc32)n1 [P.57]
≥ 80%: pest or weed control at 200 ppm [1] | inhibition at 200 ppm [2] | inhibition at 200 ppm [3] | inhibition at 200 ppm [4] | inhibition at 200 ppm [5] | inhibition at 200 ppm (Gaeumannomyces graminis) | inhibition at 200 ppm [6]

CO/N=C(\C)c1cccc(CCCO/N=C2\CCCc3c2nc2cc(Cl)ccc2c3C)n1 [P.83]
≥ 80%: pest or weed control at 200 ppm (Pyrenophora teres) | inhibition at 200 ppm [2] | inhibition at 200 ppm [3] | inhibition at 200 ppm [4] | inhibition at 200 ppm [5] | inhibition at 200 ppm (Gaeumannomyces graminis) | pest or weed control at 200 ppm [7]

CO/N=C(\C)c1cccc(CCCO/N=C2\CCCc3c2nc2ccccc2c3C)n1 [P.55]
≥ 80%: pest or weed control at 200 ppm [8] | pest or weed control at 200 ppm [9] | pest or weed control at 200 ppm [1] | pest or weed control at 200 ppm (Pyrenophora teres) | inhibition at 200 ppm [2] | inhibition at 200 ppm [3] | inhibition at 200 ppm [4] | inhibition at 200 ppm [5] | inhibition at 200 ppm (Gaeumannomyces graminis) | inhibition at 200 ppm [6] | pest or weed control at 200 ppm [7]

CO/N=C(\C)c1cccc(CCCO/N=C/c2nc(C)ccc2O)n1 [P.35]
≥ 80%: inhibition at 200 ppm [2] | inhibition at 200 ppm [4] | inhibition at 200 ppm [5] | inhibition at 200 ppm (Gaeumannomyces graminis) | inhibition at 200 ppm [6]

CO/N=C(\C)c1cccc(CCCO/N=C(\C)c2cccc(-c3cccc(OC)c3)n2)n1 [P.14]
≥ 80%: pest or weed control at 200 ppm [8] | pest or weed control at 200 ppm [1] | pest or weed control at 200 ppm (Pyrenophora teres) | inhibition at 200 ppm [4] | inhibition at 200 ppm [5] | inhibition at 200 ppm (Gaeumannomyces graminis)

CO/N=C(\C)c1cccc(CCCO/N=C(\C)c2cccc(-c3ccccc3OC)n2)n1 [P.08]
≥ 80%: pest or weed control at 200 ppm [8] | pest or weed control at 200 ppm [9] | pest or weed control at 200 ppm [1] | pest or weed control at 200 ppm (Pyrenophora teres) | inhibition at 200 ppm [2] | inhibition at 200 ppm [4] | inhibition at 200 ppm [5] | inhibition at 200 ppm [6] | pest or weed control at 200 ppm [7]

C=CCO/N=C(\C)c1cccc(CCCO/N=C(\C)c2cccc(C)n2)n1 [P.09]
≥ 80%: pest or weed control at 200 ppm [8] | pest or weed control at 200 ppm [9] | pest or weed control at 200 ppm [1] | pest or weed control at 200 ppm (Pyrenophora teres) | inhibition at 200 ppm [2] | inhibition at 200 ppm [3] | inhibition at 200 ppm [4] | inhibition at 200 ppm [5] | inhibition at 200 ppm [6] | pest or weed control at 200 ppm [7]

CCO/N=C(\C)c1cccc(CCCO/N=C(\C)c2cccc(C)n2)n1 [P.01]
≥ 80%: pest or weed control at 200 ppm [8] | pest or weed control at 200 ppm [9] | pest or weed control at 200 ppm [1] | pest or weed control at 200 ppm (Pyrenophora teres) | inhibition at 200 ppm [2] | inhibition at 200 ppm [3] | inhibition at 200 ppm [4] | inhibition at 200 ppm [5] | pest or weed control at 200 ppm [7]

CO/N=C(\C)c1cc(OC)cc(CCCO/N=C(\C)c2cccc(C)n2)n1 [P.103]
≥ 80%: pest or weed control at 200 ppm [8] | pest or weed control at 200 ppm [9] | pest or weed control at 200 ppm [1] | pest or weed control at 200 ppm (Pyrenophora teres) | inhibition at 200 ppm [2] | inhibition at 200 ppm [3] | inhibition at 200 ppm [4] | inhibition at 200 ppm [5] | inhibition at 200 ppm (Gaeumannomyces graminis) | inhibition at 200 ppm [6] | pest or weed control at 200 ppm [7]

CO/N=C(\C)c1cccc(CCCO/N=C2\CCCc3c2nc2ccc(Br)cc2c3C)n1 [P.84]
≥ 80%: pest or weed control at 200 ppm [1] | pest or weed control at 200 ppm (Pyrenophora teres) | inhibition at 200 ppm [2] | inhibition at 200 ppm [3] | inhibition at 200 ppm [4] | inhibition at 200 ppm [5] | inhibition at 200 ppm (Gaeumannomyces graminis) | pest or weed control at 200 ppm [7]

C#CCO/N=C(\C)c1cccc(CCCO/N=C(\C)c2cccc(C)n2)n1 [P.02]
≥ 80%: pest or weed control at 200 ppm [9] | pest or weed control at 200 ppm [1] | inhibition at 200 ppm [2] | inhibition at 200 ppm [4] | inhibition at 200 ppm [5] | inhibition at 200 ppm (Gaeumannomyces graminis) | inhibition at 200 ppm [6]

CC/C(=N\OC)c1cccc(CCCO/N=C(\C)c2cccc(C)n2)n1 [P.22]
≥ 80%: pest or weed control at 200 ppm [8] | pest or weed control at 200 ppm [9] | pest or weed control at 200 ppm [1] | pest or weed control at 200 ppm (Pyrenophora teres) | inhibition at 200 ppm [2] | inhibition at 200 ppm [3] | inhibition at 200 ppm [4] | inhibition at 200 ppm [5] | inhibition at 200 ppm (Gaeumannomyces graminis) | inhibition at 200 ppm [6] | pest or weed control at 200 ppm [7]

CO/N=C(\C)c1cccc(CCCO/N=C(\C)c2nc(C(F)(F)F)ccc2C(=O)OC)n1 [P.46]
≥ 80%: pest or weed control at 200 ppm [1] | inhibition at 200 ppm [2] | inhibition at 200 ppm [4] | inhibition at 200 ppm [5] | inhibition at 200 ppm (Gaeumannomyces graminis)

CO/N=C(/c1cccc(CCCO/N=C(\C)c2cccc(C)n2)n1)C(C)C (single isomer, unassigned) [P.23A]
≥ 80%: pest or weed control at 200 ppm (Pyrenophora teres) | inhibition at 200 ppm [2] | inhibition at 200 ppm [4] | inhibition at 200 ppm [5] | inhibition at 200 ppm (Gaeumannomyces graminis) | pest or weed control at 200 ppm [7]

CO/N=C(\C)c1cccc(C(CCO/N=C(\C)c2cccc(C)n2)=C(Cl)Cl)n1 [P.13]
≥ 80%: pest or weed control at 200 ppm [1] | pest or weed control at 200 ppm (Pyrenophora teres) | inhibition at 200 ppm [4] | inhibition at 200 ppm [5] | inhibition at 200 ppm (Gaeumannomyces graminis)
